Results published in ChEMBL document CHEMBL1133401 (Bioorg Med Chem Lett, 2000).
pKi: −log10 of the molar value. ≈ marks a conversion by molar mass, not a printed value.

Test system: not listed separately
Experiment: The compound was evaluated for the aqueous solubility at pH value of 2.6.
Format: physicochemical
Settings: pH 2.6

solubility [µg/mL]	SMILES
1570	CCNC(=O)[C@H]1O[C@@H](n2cnc3c(NCC(c4ccccc4)c4ccccc4)nc(N[C@H]4CC[C@H](N)CC4)nc32)[C@H](O)[C@@H]1O.O=C(O)C(F)(F)F
≥ 1820	CCNC(=O)[C@H]1O[C@@H](n2cnc3c(NCC(c4ccccc4)c4ccccc4)nc(NCCc4c[nH]cn4)nc32)[C@H](O)[C@@H]1O
24 (≈ 42 µM)	CCNC(=O)[C@H]1O[C@@H](n2cnc3c(NCC(c4ccccc4)c4ccccc4)nc(NC4CCCC4)nc32)[C@H](O)[C@@H]1O
≥ 1870	CCNC(=O)[C@H]1O[C@@H](n2cnc3c(NCC(c4ccccc4)c4ccccc4)nc(NCCN4CCCCC4)nc32)[C@H](O)[C@@H]1O.O=C(O)C(F)(F)F

Biological target: T1, Adenosine receptor A2a (Rattus norvegicus, UniProt P30543)
Experiment: (§1) Agonistic activity against Adenosine A2A receptor on rat striatal membranes
Format: functional, Striatum, Membrane
Settings: not given

T1 sequence (P30543 whole entry): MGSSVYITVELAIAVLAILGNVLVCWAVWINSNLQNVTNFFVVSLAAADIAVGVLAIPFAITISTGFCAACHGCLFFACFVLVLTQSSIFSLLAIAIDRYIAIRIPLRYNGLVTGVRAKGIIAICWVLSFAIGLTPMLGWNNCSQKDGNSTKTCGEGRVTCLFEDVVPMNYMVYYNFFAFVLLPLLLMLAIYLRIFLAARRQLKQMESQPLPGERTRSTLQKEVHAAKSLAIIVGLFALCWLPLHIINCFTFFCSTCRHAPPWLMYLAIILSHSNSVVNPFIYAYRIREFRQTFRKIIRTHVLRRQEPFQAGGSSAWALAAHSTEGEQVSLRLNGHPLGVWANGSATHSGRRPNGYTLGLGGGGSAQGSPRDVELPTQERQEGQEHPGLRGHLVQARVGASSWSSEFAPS

pKi	SMILES
4.99	OC[C@H]1O[C@@H](n2cnc3c(NCc4cccc5ccccc45)nc(NC4CCCCC4)nc32)[C@H](O)[C@@H]1O

Biological target: T1, Adenosine receptor A2a
Experiment: as §1
Settings: not given

SMILES	pKi
OC[C@H]1O[C@@H](n2cnc3c(NCc4cccc5ccccc45)ncnc32)[C@H](O)[C@@H]1O	8.03

Biological target: T2, Adenosine receptor A1 (Cavia porcellus, UniProt P47745)
T2 sequence (P47745 whole entry): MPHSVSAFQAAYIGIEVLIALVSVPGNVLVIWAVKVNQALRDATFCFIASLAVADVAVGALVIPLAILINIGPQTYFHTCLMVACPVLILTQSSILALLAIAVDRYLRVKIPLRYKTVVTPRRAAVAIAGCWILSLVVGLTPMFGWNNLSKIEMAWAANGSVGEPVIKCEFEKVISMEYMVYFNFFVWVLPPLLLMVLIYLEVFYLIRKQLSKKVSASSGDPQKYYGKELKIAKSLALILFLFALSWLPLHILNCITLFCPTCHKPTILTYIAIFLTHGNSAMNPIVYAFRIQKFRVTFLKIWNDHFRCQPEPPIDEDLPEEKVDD
Experiment: Ex vivo inhibition of guinea pig ileum twitch via Adenosine A1 receptor.
Format: tissue-based
Settings: not given

ECR	SMILES
260	CCNC(=O)[C@H]1O[C@@H](n2cnc3c(N)nc(N[C@@H]4CCC[C@H]4O)nc32)[C@H](O)[C@@H]1O
369	CCNC(=O)[C@H]1O[C@@H](n2cnc3c(NCC(c4ccccc4)c4ccccc4)nc(N[C@H]4CC[C@H](N)CC4)nc32)[C@H](O)[C@@H]1O.O=C(O)C(F)(F)F
2	OC[C@H]1O[C@@H](n2cnc3c(N[C@@H]4CCC[C@@H]4O)nc(Cl)nc32)[C@H](O)[C@@H]1O
390	CCNC(=O)[C@H]1O[C@@H](n2cnc3c(NCC(c4ccccc4)c4ccccc4)nc(N[C@@H]4CCC[C@H]4O)nc32)[C@H](O)[C@@H]1O
672	CCNC(=O)[C@H]1O[C@@H](n2cnc3c(NCC(c4ccccc4)c4ccccc4)nc(NCCc4c[nH]cn4)nc32)[C@H](O)[C@@H]1O
1470	Nc1nc(N[C@@H]2CCC[C@H]2O)nc2c1ncn2[C@@H]1O[C@H](CO)[C@@H](O)[C@H]1O
84	Nc1nc(N[C@H]2CCC[C@@H]2O)nc2c1ncn2[C@@H]1O[C@H](CO)[C@@H](O)[C@H]1O
> 5000	CCNC(=O)[C@H]1O[C@@H](n2cnc3c(NCC(c4ccccc4)c4ccccc4)nc(NC4CCCC4)nc32)[C@H](O)[C@@H]1O
> 612	OC[C@H]1O[C@@H](n2cnc3c(NCC(c4ccccc4)c4ccccc4)nc(NC4CCCC4)nc32)[C@H](O)[C@@H]1O
549	Nc1nc(NC2CCCC2)nc2c1ncn2[C@@H]1O[C@H](CO)[C@@H](O)[C@H]1O
1	OC[C@H]1O[C@@H](n2cnc3c(NC4CCCC4)nc(Cl)nc32)[C@H](O)[C@@H]1O
80	CCNC(=O)[C@H]1O[C@@H](n2cnc3c(N)nc(NC4CCCC4)nc32)[C@H](O)[C@@H]1O
263	CCNC(=O)[C@H]1O[C@@H](n2cnc3c(NCC(c4ccccc4)c4ccccc4)nc(NCCN4CCCCC4)nc32)[C@H](O)[C@@H]1O.O=C(O)C(F)(F)F
> 1000	OC[C@H]1O[C@@H](n2cnc3c(NCCc4cccc(Cl)c4)nc(NC4CCCC4)nc32)[C@H](O)[C@@H]1O
